From patent publication US10596151B2, “Methods and pharmaceutical compositions for reducing arterial stiffness with a combination of a therapeutic agent blocking the angiotensin receptor and a therapeutic agent inhibiting the NEP enzyme” (Novartis AG, priority 2015, dated 2020)
“And” between values parts separate entries of the source, which are not always exact repeats. Identical values can stand only once. Marks after values point to notes of the source that are not given here.

Legend:
[1] = tested on: elderly patients (≥60 years) with essential hypertension; test: […] study: central aortic pressures (CASP, CPP/CAPP, central DBP, central MAP) by SphygmoCor X-CEL; format: in vivo, human; settings: for LSM change from baseline (SE) in mean CPP at Week 12 endpoint / LSM change from baseline (SE) in mean CASP at Week 12 endpoint: monotherapy; for LSM change from baseline (SE) in mean CASP at Week 12 endpoint: olmesartan 40 mg/day; for LSM change from baseline (SE) in mean CASP at Week 52 endpoint / LSM change from baseline (SE) in mean CPP at Week 52 endpoint: add-on amlodipine/HCTZ allowed; for Change from baseline to 12 weeks, mscDBP / Change from baseline to 52 weeks, mscDBP: mean sitting central diastolic BP; for Change from baseline to 12 weeks, mscMAP / Change from baseline to 52 weeks, mscMAP: mean sitting central mean arterial pressure, mean
Experimental: The term CAPP refers to central aortic PP. In the context of the present invention CAPP is measured with the SphygmoCor X-CEL System (AtCor Medical, Sydney, Australia) to non-invasively derive the ascending aortic pressure waveform from the brachial waveform using a validated generalised transfer function (GTF). A properly sized BP cuff is linked to a computer and software and the CASP, CAPP, augmentation pressure, and Alx are determined from the analysis of waveform by the system software. […]
The primary and secondary endpoints are changes from baseline in central aortic systolic pressure (CASP) and central aortic PP (CAPP) at week 12, respectively. Other secondary endpoints are the changes in CASP and CAPP at week 52. […] The primary variable will be analysed using a two-way analysis of covariance.
The SphygmoCor X-CEL System (AtCor Medical, Sydney, Australia) is being used to non-invasively derive the ascending aortic pressure waveform from the brachial waveform using a validated generalised transfer function (GTF).22 A properly sized BP cuff is linked to a computer and software and the CASP, CAPP, augmentation pressure, and Alx are determined from the analysis of waveform by the system software.
A sample size of 183 completers per group is targeted, which is calculated based on the primary efficacy variable, change from baseline in mean CASP at 12 weeks, assuming a standard deviation of 19 mm Hg. […] Assuming a 15% dropout rate, the total targeted sample size to be randomised is 432 patients (216 per group). The primary variable at the Week 12 endpoint will be analysed using a two-way analysis of covariance (ANCOVA), with treatment and region as factors and the baseline as a covariate. Mean CAPP at the Week 12 endpoint will be analysed using the same type of ANCOVA model used for the primary efficacy analysis. A two-sided significance at 0.05 level will be used for this analysis and a 95% confidence interval for the treatment difference will be provided.

[2] = tested on: elderly patients (≥60 years) with essential hypertension; test: […] study: mean sitting (brachial) blood pressure and pulse pressure; format: in vivo, human; settings: for Change from baseline to 12 weeks, msDBP / Change from baseline to 52 weeks, msDBP: mean sitting diastolic BP; for Change from baseline to 12 weeks, msDBP / Change from baseline to 52 weeks, msDBP / Change from baseline to 12 weeks, msPP / Change from baseline to 52 weeks, msPP / Change from baseline to 12 weeks, msSBP / Change from baseline to 52 weeks, msSBP: mean; for Change from baseline to 12 weeks, msMAP / Change from baseline to 52 weeks, msMAP: mean sitting mean arterial pressure; for Change from baseline to 12 weeks, msPP / Change from baseline to 52 weeks, msPP: mean sitting pulse pressure; for Change from baseline to 12 weeks, msSBP / Change from baseline to 52 weeks, msSBP: mean sitting systolic BP
From the text: (§1) The study enrolled patient from 5 Dec. 2012 to 8 Apr. 2015.
Superiority testing is also planned for the key secondary efficacy assessment, i.e. the reduction in mean central aortic PP (CAPP) after 12 weeks of treatment, and other secondary efficacy assessments such as mean CASP and CAPP after 52 weeks of treatment. Mean aPWV, msSBP, msDBP, msPP, mean ambulatory (ma) BP, maPP, and MAP will also be measured after 12 and 52 weeks of treatment.

[3] = tested on: elderly patients (≥60 years) with essential hypertension; test: PARAMETER study: safety and tolerability assessments
From the text: The inclusion criteria in the study was designed to enroll patients which met the profile of elderly patients with systolic hypertension and a wide pulse pressure, a characteristic reflective of large artery (aortic) stiffness. […] The study enrolled patient from 5 Dec. 2012 to 8 Apr. 2015.
This was a 52-week study, involving 50 centers from 12 countries (across Europe, South America, Asia and the United States). […] After 12 weeks, patients with uncontrolled BP (msSBP>140 mmHg and/or mean sitting diastolic blood pressure [msDBP]>90 mmHg) were allowed the use of add-on antihypertensives (amlodipine [2.5-5.0 mg] and then hydrochlorothiazide [6.25-25.0 mg]) as needed, at an interval of 4 weeks up to Week 24.
Safety and tolerability assessments include regular monitoring and recording of all adverse events (AEs) and concomitant medications or significant non-drug therapies. Evaluations of routine blood chemistries, blood counts with white cell differential and urine analyses, physical examinations, electrocardiograms (ECGs), and monitoring of vital signs will be performed at regular intervals.

[4] = tested on: elderly patients (≥60 years) with essential hypertension; test: […] study: carotid-femoral aortic pulse wave velocity (SphygmoCor X-CEL); format: in vivo, human; settings: for Change from baseline to 12 weeks, PWV / Change from baseline to 52 weeks, PWV: pulse wave velocity; for Change from baseline to 12 weeks, PWV: Week 12 endpoint, n = 192 LCZ696, n = 196 olmesartan; for Change from baseline to 52 weeks, PWV: week 52 endpoint, n = 199 both treatments
Experimental: In the context of the present invention PWV is measured as aortic PWV=aPWV. One system to measure aPWV is the SphygmoCor X-CEL system which measures the carotid-femoral aPWV, as the speed of the arterial pressure waveform as it travels through the descending aorta to the femoral artery, which is detected from simultaneously measured carotid and femoral arterial pulses. The carotid pulse is detected by applanation tonometry using a high-fidelity pressure transducer (Millar Instruments, Houston, Tex.), while the femoral pulse is detected using a partially inflated blood pressure cuff wrapped around the upper thigh. The distance travelled by the pulse wave is captured by making physical measurements on the body surface according to the manufacturer's recommendations. […] [Butlin M, Qasem A, Avolio A P. Estimation of central aortic pressure waveform features derived from the brachial cuff volume displacement waveform. Conf Proc IEEE Eng Med Biol Soc 2012; 2012:2591-4]
as §1
The SphygmoCor X-CEL system also measures the carotid-femoral aPWV, as the speed of the arterial pressure waveform as it travels through the descending aorta to the femoral artery, which is detected from simultaneously measured carotid and femoral arterial pulses. The carotid pulse is detected by applanation tonometry using a high-fidelity pressure transducer (Millar Instruments, Houston, Tex.), while the femoral pulse is detected using a partially inflated blood pressure cuff wrapped around the upper thigh. The distance traveled by the pulse wave is captured by making physical measurements on the body surface according to the manufacturer's recommendations.

[5] = LCZ696 regimen vs olmesartan regimen, 12 weeks
[6] = LCZ696 regimen vs olmesartan regimen, 52 weeks
[7] = Week 12 endpoint, FAS, LCZ696 400 mg/day
[8] = Week 52 endpoint (LOCF), FAS, listed as olmesartan

Row | Compound | LSM change from baseline (SE) in mean CPP at Week 12 endpoint ([1]; Week 12 endpoint, FAS) | LSM change from baseline (SE) in mean CASP at Week 12 endpoint [1, 7] | LSM change from baseline (SE) in mean CASP at Week 52 endpoint ([1]; Week 52 endpoint (LOCF), FAS) | LSM change from baseline (SE) in mean CPP at Week 52 endpoint ([1]; Week 52 endpoint (LOCF), FAS) | Change from baseline to 12 weeks, mscDBP ([1]; 12 weeks) [mmHg] | Change from baseline to 52 weeks, mscDBP ([1]; 52 weeks) [mmHg] | Change from baseline to 12 weeks, mscMAP ([1]; 12 weeks) [mmHg] | Change from baseline to 52 weeks, mscMAP ([1]; 52 weeks) [mmHg] | Change from baseline to 12 weeks, msDBP ([2]; 12 weeks) [mmHg] | Change from baseline to 52 weeks, msDBP ([2]; 52 weeks) [mmHg] | Change from baseline to 12 weeks, msMAP ([2]; 12 weeks) [mmHg] | Change from baseline to 52 weeks, msMAP ([2]; 52 weeks) [mmHg] | Change from baseline to 12 weeks, msPP ([2]; 12 weeks) [mmHg] | Change from baseline to 52 weeks, msPP ([2]; 52 weeks) [mmHg] | Change from baseline to 12 weeks, msSBP ([2]; 12 weeks) [mmHg] | Change from baseline to 52 weeks, msSBP ([2]; 52 weeks) [mmHg] | Change from baseline to 12 weeks, PWV [4] | Change from baseline to 52 weeks, PWV [4] | other results
1 | CCCCC(=O)N(Cc1ccc(-c2ccccc2-c2nn[n-]n2)cc1)C(C(=O)[O-])C(C)C.CCCCC(=O)N(Cc1ccc(-c2ccccc2-c2nn[n-]n2)cc1)C(C(=O)[O-])C(C)C.CCOC(=O)C(C)CC(Cc1ccc(-c2ccccc2)cc1)NC(=O)CCC(=O)[O-].CCOC(=O)C(C)CC(Cc1ccc(-c2ccccc2)cc1)NC(=O)CCC(=O)[O-].O.O.O.O.O.[Na+].[Na+].[Na+].[Na+].[Na+].[Na+] [LCZ696, trisodium [3-((1S,3R)-1-biphenyl-4-ylmethyl-3-ethoxycarbonyl-1-butylcarbamoyl) propionate-(S)-3′-methyl-2′-(pentanoyl{2″-(tetrazol-5-ylate)biphenyl-4′-ylmethyl}amino)butyrate]hemipentahydrate] | −6.41 mmHg and −6.41 (0.69) mmHg | −12.57 mmHg and −12.57 (1.01) mmHg | −16.18 mmHg and −16.18 (0.96) mmHg | −7.16 mmHg and −7.16 (0.69) mmHg | −6.1 | −8.8 | −8.0 | −9.6 | −5.3 | −8.1 | −12.2 | −13.9 | −8.0 | −9.1 | −13.3 | −17.2 | −0.7 | −0.8 | lowering of CASP and CPP vs olmesartan 40 mg/day ([1]; LCZ696 400 mg/day, after 12 weeks of monotherapy): to a greater extent than olmesartan; Between-treatment difference, mscDBP, 12 weeks [1, 5]: −1.1 (0.90) mmHg; Between-treatment difference, mscDBP, 52 weeks [1, 6]: −0.7 (0.86) mmHg; LSM difference in change from baseline (SE), mean CPP, LCZ696 vs Olmesartan ([1]; Week 12 endpoint, FAS, ANCOVA, p=0.012): −2.45 mmHg and −2.45 (0.96) mmHg; LSM difference in change from baseline (SE), mean CASP, LCZ696 vs Olmesartan ([1]; Week 52 endpoint (LOCF), FAS, p=0.271): −1.49 (1.35) mmHg; LSM difference in change from baseline (SE), mean CPP, LCZ696 vs Olmesartan ([1]; Week 52 endpoint (LOCF), FAS, p=0.598): −0.51 (0.97) mmHg; Between-treatment difference, msMAP, 12 weeks ([2]; LCZ696 regimen vs olmesartan regimen, 12 weeks, P < 0.001): −3.6 (0.95)* mmHg; Between-treatment difference, msMAP, 52 weeks [2, 6]: −1.5 (0.89) mmHg; percentage of patients who discontinued the study ([3]; 52-week study): 19.7%; percentage of patients who discontinued the study due to an AE ([3]; 52-week study): 6.6%; percentage of patients with AEs ([3]; 52-week study): 57.6%; percentage of patients with SAEs ([3]; 52-week study): 7.0%; tolerability of the regimen ([3]; 52-week study): well tolerated; Between-treatment difference, PWV, 12 weeks [4, 5]: −0.1 (0.17)*; Between-treatment difference, PWV, 52 weeks [4, 6]: −0.1 (0.18); reduction of PWV in subgroup of patients with high baseline PWV ([4]; ad-hoc analysis, vs olmesartan regimen, both Week 12 and 52): tended to reduce PWV to a greater extent than olmesartan regimen; difference in carotid-femoral PWV between the two regimens ([4]; both Week 12 and 52, LCZ696 vs olmesartan regimen): no significant difference
2 | CCCc1nc(C(C)(C)O)c(C(=O)O)n1Cc1ccc(-c2ccccc2-c2nnn[nH]2)cc1 [Olmesartan, reference compound] | −3.96 (0.69) mmHg | −8.90 (1.01) mmHg | −14.70 (0.96) mmHg | −6.65 (0.69) mmHg | −5.0 | −8.1 | −6.7 | −9.1 | −5.2 | −8.5 | −8.6 | −12.4 | −4.5 | −7.6 | −9.7 | −16.0 | −0.6 | −0.8 | LSM change from baseline (SE) in mean CASP at Week 12 endpoint ([1]; Week 12 endpoint, FAS, LCZ696 400 mg/day, listed as olmesartan): −8.90 mmHg; LSM change from baseline (SE) in mean CPP at Week 12 endpoint ([1]; Week 12 endpoint, FAS, listed as olmesartan): −3.96 mmHg; LSM change from baseline (SE) in mean CASP at Week 52 endpoint [1, 8]: −14.70 mmHg; LSM change from baseline (SE) in mean CPP at Week 52 endpoint [1, 8]: −6.65 mmHg; percentage of patients who discontinued the study ([3]; human, in vivo, 52 weeks): 18.7%; percentage of patients who discontinued the study due to an AE ([3]; human, in vivo, 52 weeks): 5.3%; percentage of patients with AEs ([3]; human, in vivo, 52 weeks): 53.8%; percentage of patients with SAEs ([3]; human, in vivo, 52 weeks): 5.8%
